From patent US9364449B2, “Peptoid and synthetic oligomers, pharmaceutical compositions and methods of using same” (New York University, priority 2011, dated 2016)
“Also recorded” adds a separate entry of the source. Non-standard residues stand in square brackets, D forms with d. Residues, ends and D or L forms follow the SMILES beside them. No end group written: not given here. Sar = CNCC(=O)O

Key:
[1] = system: primary hippocampal neurons; test: Accumulation of aggregated FITC labeled Aβ1-40 on the surface of neurons; assay type: cell-based, C57bL/6 mice; settings: 18 DIV neurons, FITC labeled Aβ1-40, treated with compound
Procedure: P0-P1 pups of C57bL/6 mice were killed by decapitation and brains were removed in aseptic conditions. To establish cultures of primary hippocampal neurons the hippocampi were dissected from both hemispheres under AmScope stereoscopic microscope (AmScope, Chino, Calif.). Fragments of tissue were placed in the ice-cold Ca^2+ and Mg^2+ free Hank's balanced salt solution (HBSS) and gently cut further into fine pieces which were then treated with 0.05% trypsin in HBSS for 10 min at 37° C. to obtain cell suspension. Following addition of 0.1% type-I-S trypsin inhibitor and 0.05% DNase I, the cell suspension was centrifuged at 500×g for 30 sec. […] The cell suspension was then filtered through a 70-μm mesh, and the cells were counted using hematocytometer (Hausser Scientific, Horsham, Pa.). […]
Coverslip inserts covered by the primary hippocampal neuro^ns were immersed three times in PBS at 37° C., and then in 80% ice-cold methanol for 10 min to fix the neurons, and washed again three times in PBS. […] Biotinylated secondary antibodies (1:1,000) followed by Cy3 conjugated streptavidine (1:500) were used to detected binding of primary Abs to their antigens. […] Immunostained neurons were analyzed under 80i Nikon fluorescent microscope (Nikon Corp. Tokyo, Japan). […]

[2] = system: primary hippocampal neurons; test: Intraneuronal Aβ accumulation (Western blot of neuronal lysates, densitometry); assay type: cell-based, C57bL/6 mice; settings: 10 μM Aβ40 with or without compound, p<0.01
Procedure: P0-P1 pups of C57bL/6 mice were killed by decapitation and brains were removed in aseptic conditions. To establish cultures of primary hippocampal neurons the hippocampi were dissected from both hemispheres under AmScope stereoscopic microscope (AmScope, Chino, Calif.). Fragments of tissue were placed in the ice-cold Ca^2+ and Mg^2+ free Hank's balanced salt solution (HBSS) and gently cut further into fine pieces which were then treated with 0.05% trypsin in HBSS for 10 min at 37° C. to obtain cell suspension. Following addition of 0.1% type-I-S trypsin inhibitor and 0.05% DNase I, the cell suspension was centrifuged at 500×g for 30 sec. The resulting pellet was triturated, centrifuged again at 500×g for 5 min and resuspended in the minimal essential medium (MEM) supplemented with heat-inactivated 10% fetal bovine serum (FBS), 0.5 mM glutamine, streptomycin (50 μg/ml) and penicillin (50 U/ml). The cell suspension was then filtered through a 70-μm mesh, and the cells were counted using hematocytometer (Hausser Scientific, Horsham, Pa.). The cells were seeded on poly-L-lysine coated 12-well plates. For biochemical analysis 5×10^5 cells were seeded directly on the bottom of each well whereas for immunohistochemistry a removable, poly-L-lysine coated round coverslip was placed on the bottom of the well and the number of seeded cells was reduced to 1×10^5 per well. […]

[3] = system: primary hippocampal neurons; test: Immunocytochemistry and quantification of synaptic protein expression in neurons exposed to Aβ40; assay type: cell-based, C57bL/6 mice
Procedure: P0-P1 pups of C57bL/6 mice were killed by decapitation and brains were removed in aseptic conditions. To establish cultures of primary hippocampal neurons the hippocampi were dissected from both hemispheres under AmScope stereoscopic microscope (AmScope, Chino, Calif.). Fragments of tissue were placed in the ice-cold Ca^2+ and Mg^2+ free Hank's balanced salt solution (HBSS) and gently cut further into fine pieces which were then treated with 0.05% trypsin in HBSS for 10 min at 37° C. to obtain cell suspension. Following addition of 0.1% type-I-S trypsin inhibitor and 0.05% DNase I, the cell suspension was centrifuged at 500×g for 30 sec. The resulting pellet was triturated, centrifuged again at 500×g for 5 min and resuspended in the minimal essential medium (MEM) supplemented with heat-inactivated 10% fetal bovine serum (FBS), 0.5 mM glutamine, streptomycin (50 μg/ml) and penicillin (50 U/ml). The cell suspension was then filtered through a 70-μm mesh, and the cells were counted using hematocytometer (Hausser Scientific, Horsham, Pa.). The cells were seeded on poly-L-lysine coated 12-well plates. For biochemical analysis 5×10^5 cells were seeded directly on the bottom of each well whereas for immunohistochemistry a removable, poly-L-lysine coated round coverslip was placed on the bottom of the well and the number of seeded cells was reduced to 1×10^5 per well. The neurons were allowed to adhere to the surface for four hours and then the medium was replaced with the serum-free Neurobasal medium containing 2% B27 supplement, 0.5 mM glutamine, streptomycin (50 μg/ml) and penicillin (50 U/ml). At three days in vitro (DIV) 5 μM of cytosine-β-D-arabinoside (Ara C) was added for 48 hr to inhibit division of non-neuronal cells. At 7 DIV one well from each preparation of primary hippocampal neurons was randomly selected to determine the purity of the culture. This was done by calculating the ratio of cells immunostained against microtubule-associated protein 2 (MAP2), which is a neuronal specific marker against all cells stained with 4′,6-diamidino-2-phenylindole (DAPI) nucleic acid stain.
Monomerized Aβ40 peptides were diluted in cell culture media and added to neuronal monocultures for 24 or 72 hr.

[4] = In vivo pharmacokinetic studies in rats
[5] = system: eAβ1-x in brain interstitial fluid (ISF); test: In vivo microdialysis of brain interstitial fluid eAβ in AD transgenic mice; set-up: species or system APPSW/PS1L166P AD transgenic mice; settings: 100 μM compound by reverse microdialysis into hippocampal CA1
Procedure: Mice were anesthetized with an intraperitoneal injection of Ketamine (50 mg/kg) and Xylazine (10 mg/kg). An MBR-10 guide cannula was stereotactically implanted into the right hippocampus (bregma −3.1 mm, 2.4 mm lateral, 12° angle). Four hours later mice were anesthetized again for the insertion of a BR-4 microdialysis probe with 38 kDa molecular weight cutoff (MWCO) membrane (Cirrito et al., 2008. 2008. Neuron; 58, 42-51) which was introduced through the implanted guide cannula. The probe was positioned so that the microdialysis membrane was almost entirely embedded in the strata radiatum and lacunosum-moleculare of the CA1 hippocampal sector (FIG. 8A). […]
eAβ level in the ISF dialyzate was determined using sandwich ELISA specific for human Aβ1-x. […] Absorbance was read on the Epoch Microplate Spectrophotometer (BioTek Instruments, Inc. Winooski, Vt.). Following background subtraction, absorbance values from serially diluted synthetic Aβ samples were used to generate a standard curve in GraphPad Prism v5.02 (GraphPad Software, Inc., San Diego) using a non-linear curve-fitting algorithm. eAβ concentration in dialysate samples was determined by comparing their absorbance values against the standard curve. […]

Aβ1-40 [6] = target: T1, Aβ1-40 (Homo sapiens, UniProt P05067); test: Thioflavine-T aggregation assay, Aβ1-40 aggregated in the presence of compound; assay type: biochemical
T1 construct: made in house; host or cells: chemical solid-phase peptide synthesis (L-amino acids), RP-HPLC purified
T1 sequence (P05067 672-711): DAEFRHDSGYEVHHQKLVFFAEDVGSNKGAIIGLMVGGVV
Procedure: (§1) Peptoid modified derivatives of the KLVFFA (SEQ ID NO: 4) sequence were tested using Thioflavine-T aggregation assay to determine whether or not they are capable of forming fibrils themselves. […] In these treatment experiments, 100 μM Aβ40 or Aβ42 was mixed with 1-100 μM of the investigated compound and incubated up to 14 days. […] They were incubated alone or in the presence of peptoid modified derivatives of KLVFFA (SEQ ID NO: 4) sequence at concentrations of 1-100 μM. In addition, peptoid modified derivatives of KLVFFA (SEQ ID NO: 4) sequence were incubated alone as indicated above at the concentration of 100 μM. At the indicated intervals, samples containing 15 μg of incubated peptides were added to 1 mL of 50 mM/L glycine, pH 9.2 and 2 μM/L of Thioflavin-T (Sigma Chemical, Co.; St. Louis, Mo.). Fluorescence was measured at excitation 435 nm and emission 485 nm in a Hitachi F-2000 fluorescence spectrophotometer. A time scan of fluorescence was performed and three values after the decay reached a plateau (280, 290, 300 seconds) were averaged. The background fluorescence of 40 μl of Tris buffer added to 2 μM/L of Thioflavin-T solution was subtracted. Samples were run in duplicate. Differences in amount of fibrils formed by different peptides at particular time points were evaluated by one-way ANOVA followed by Tukey post hoc test.

Aβ1-40 [7] = target: T1, Aβ1-40; test: Oligomerization assay (glutaraldehyde cross-linking, Western blot, densitometry); assay type: biochemical; settings: 100 μM Aβ1-40 with 10 μM compound (10:1 Aβ:inhibitor), 4° C., 24 h
Procedure: Autoradiography films were converted into 8 bit grayscale digital files using a Epson Perfection 4990 scanner (Epson America; Long Beach, Calif.) and Adobe Photoshop CS4 (Adobe Systems; San Jose, Calif.) and saved in a TIF format with a resolution of 600 dpi. Densitometric analysis of Western and dot-blot signals was performed using NIH Image J software v 1.42 (Bethesda, Md.) as previously described (Pankiewicz et al., 2006. Eur. J. Neurosci. 23, 2635-47; Sadowski et al., 2009. Neurobiol Dis; 34, 267-78).
The rationale is that Aβ oligomeric assemblies are particularly toxic to synaptic components and impair neurotransmission. […] GKLVFNmgA (SEQ ID NO: 310:1 Aβ:inhibitor ratio). Prior to electrophoresis, glutaraldehyde (0.4 mM final concentration) was added to prevent disassembly of complexes. Samples were immediately subjected to electrophoresis in non-reducing condition, Western-transfer, and detection with a mixture of 4G8 and 6E10 anti-Aβ Mabs.

[8] = Thioflavine-T aggregation assay, compound incubated alone (own fibril formation); assay type: physicochemical; settings: compound alone at 100 μM
Procedure: as §1

[9] = system: SK-N-SH human neuroblastoma cells; test: MTT toxicity assay; settings: four day MTT cytotoxicity assay
Procedure: SK-N-SH cells were plated at 10,000 cells/100 μl per well in flat-bottom, 96-well microtiter plates and incubated with 1-100 μmol/L concentrations of tested peptides for two days after which cell viability was assessed using a metabolic assay, which is based on cleavage of the yellow tetrazolium salt (MTT) to purple formazan crystals by viable cells. The MTT assay (Roche Molecular Biochemicals, Indianapolis, Ind.) was performed according to the manufacturer's instructions.

[10] = 18 DIV neurons, 10 μM Aβ40 plus 5 μM compound, 72 hr

Row | Molecule | accumulation of aggregated Aβ1-40 on the surface of neurons [1] | less Aβ accumulated in neurons after six hr of exposure ([2]; 6 hr) [%] | less Aβ accumulated in neurons after 24 hr of exposure ([2]; 24 hr) [%] | NR1 NMDA receptor subunit positive densities, % of the control [3, 10] | PSD-95 positive densities, % of the control [3, 10] | synaptophysin positive densities, % of the control [3, 10] | effect of compound alone on the expression of NR1, synaptophysin and PSD-95 ([3]; neurons treated with compound alone, no Aβ) | blood brain barrier (BBB) penetration [4] | detection in the cerebrospinal fluid (CSF) ([4]; following intravenous administration) | level in plasma after intranasal delivery ([4]; intranasal) | level in plasma following oral delivery ([4]; oral) | half-life ([4]; rat, in vivo) [h] | hour after the infusion onset from which the increase in eAβ was observed [5] | inhibitory effect on the aggregation of Aβ1-40 (Aβ1-40 [6]; 1 μM compound, 100 μM Aβ1-40 (1:100 compound:Aβ ratio), p<0.001) | dose dependent effect on aggregation of Aβ1-40 (Aβ1-40 [6]; 100 μM Aβ1-40, 1-100 μM compound) | reduction of the amount of Aβ oligomers (densitometric analysis) (Aβ1-40 [7]) [%] | fibril formation by the compound itself [8] | concentration at which toxicity was exhibited in MTT assay [9] [µM]
1 | CC(C)CC(NC(=O)C(CCCCN)NC(=O)CN)C(=O)NC(C(=O)NC(Cc1ccccc1)C(=O)N(C)CC(=O)NC(C)C(N)=O)C(C)C (stereo not drawn) [GKLVFNmgA] (H-GKLVF[Sar]A-NH2; configuration not given here) | Reduction in the number of AB aggregates; also recorded: Reduced accumulation | 29.8 | 49.3 | 83 % of the control | 82.3 % of the control | 84.5 % of the control | no significant effect | good | can be detected | High level | Lesser level | < 2 | seventh | strong inhibitory effect | strong dose dependent effect | 61.3 | did not form fibrils itself; also recorded: does not form fibrils itself | 
2 | GKLVFFA-NH2 [GKLVFFA] |  |  |  |  |  |  |  |  |  |  |  |  |  |  |  |  |  | 100
